“And” between values parts separate entries of the source, which are not always exact repeats. Equal values may be shown once. The source made the active and inactive calls. How the calls were made is not given here.

104 compounds from PubChem BioAssay AID2745 (NMMLSC, 2010) can be followed below.

Assay [1] deals with S. cerevisiae LAP4-GFP reporter, flow cytometry fluorescence. The assay is described as follows: LAP4-GFP modulation potency in yeast, dose response, cell-based, MLPCN hits, flow cytometry (AID 2745).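 Further: yeast exposed to compound for three hours at 30 degrees.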
Assay in assay [2]: as above
The conditions noted are these: S. cerevisiae LAP4-GFP reporter, flow cytometry fluorescence; at 33 µM (top of the series).

As to `CCN1/C(=C/C(C)=C/c2sc3ccccc3[n+]2CC)Sc2ccccc21`, the EC50 in assay [1] was 4.21 µM.
Take `CCOc1ccc(N2C(=O)/C(=C\c3cccs3)C(=O)NC2=S)cc1`: in assay [1], the EC50 is 1.96 µM.
The same measure, in the same setting: in the case of `CN1CCN(C(c2ccc(C(F)(F)F)cc2)c2ccc3cccnc3c2O)CC1` (centres undefined) it was 6.72 µM; in that of `CC(Oc1ccc(Br)cc1)C(=O)Nc1nc(-c2ccccn2)cs1` (centres undefined), 4 µM.
On the same count and under the same terms, the figure for `COc1ccc(N2C(=O)C(Cl)=C(Oc3cccc(OC)c3)C2=O)cc1` is 4.89 µM; for `Cc1ccc(/C=N/Nc2ncc(Cl)cc2Cl)s1` it is 31.7 µM.
Still for that read-out and setting: the figure for `Cc1ccc(C2=NOC(=O)/C2=C\c2ccc(C)o2)cc1` is 4.47 µM; for `O=S(=O)(CCN(CCS(=O)(=O)C(F)(F)F)CC1CCCO1)C(F)(F)F` (centres undefined) it is 7.67 µM.
With `CCn1c(=O)c(C(=O)Nc2nc3ccccc3[nH]2)c(O)c2ccccc21`, in assay [1], the EC50 was 0.45 µM.
Consider `Cc1ccc(/C=C2\C(=O)NC(=S)N(c3ccc(F)cc3)C2=O)s1`, for which the EC50 in assay [1] was 1.15 µM.
Still for that read-out and setting: the figure for `CC1=NNC(=O)/C1=C\c1cn(-c2ccccc2)nc1-c1cccs1` is 1.32 µM; for `Cc1ccc(N/N=C(\C#N)C(N)=S)c(C)c1` it is 11.7 µM; for `O=C1NC(=O)N(Cc2ccco2)C(=O)/C1=C/c1ccc(-c2cccc([N+](=O)[O-])c2)o1` it is 6.36 µM.
On the same count and under the same terms, in the case of `Cc1ccc(NC(=O)c2ccc(Cl)c(N3C(=O)C=CC3=O)c2)cc1` it was 1.59 µM; in that of `O=S1(=O)C=C(Sc2nc3ccccc3s2)c2ccccc21`, 3.29 µM; in that of `CCCCCCCCC/C(=N\O)c1ccccn1`, 6.13 µM.
As to `CS(=O)(=O)c1nc(-c2cccs2)cc(C(F)(F)F)n1`, in assay [1], the EC50 is 30.5 µM.
Still for that read-out and setting: in the case of `O=C1NC(=O)N(Cc2ccc(F)cc2)C(=O)/C1=C/c1cccs1` it was 3.41 µM; in that of `O=[N+]([O-])c1ccc(O)c(/C=N/Nc2ccccn2)c1`, 12.5 µM; in that of `O=C(Nc1ccc(Cl)cc1Cl)c1cccc(N2C(=O)C=CC2=O)c1`, 3.92 µM.
On the same count and under the same terms, the figure for `O=C(/C=C/c1ccc(Cl)c([N+](=O)[O-])c1)c1cccnc1` is 28.6 µM; for `Cc1ccc(C(=O)Oc2oc(-c3ccco3)nc2C=Nc2ccc(Cl)cc2)cc1` it is 3.6 µM; for `COc1ccc([N+](=O)[O-])c(S(=O)(=O)c2ccc(Cl)cc2)n1` it is 1.99 µM.
Still for that read-out and setting: in the case of `c1ccc(-c2cccc(-c3ccccn3)n2)nc1` it was 3.9 µM; in that of `CC(Oc1ccc(Cl)cc1)C(=O)NNC(=S)NC(=O)c1ccco1` (centres undefined), 7.2 µM.
On to `Cc1[nH]c(-c2ccccn2)nc(=S)c1Cl`, for which the EC50 in assay [1] is 4.58 µM.
Same read-out and setting: in the case of `O=C(Oc1c(Cl)cc(Cl)c2cccnc12)c1cccc([N+](=O)[O-])c1` it was 2.02 µM; in that of `O=C1C=CC(=O)N1c1cccc(-c2ccccc2)c1`, 0.385 µM; in that of `COc1cc(N2C(=O)C=CC2=O)c(OC)cc1Cl`, 1.44 µM.
On the same count and under the same terms, the figure for `Cc1ccsc1/C=C1\C(=O)NC(=S)N(C)C1=O` is 0.327 µM; for `Cc1ccc(/C=C/C(=O)c2ccccc(=O)c2O)c(C)c1` it is 4.15 µM.
Same read-out and setting: in the case of `CC1(C)C[C@H]2C=C(C=O)[C@]3(C=O)C[C@]3(C)[C@H]2C1` it was 0.865 µM.
For `CCc1sc(C(=O)Nc2nc(-c3ccccn3)cs2)cc1C`, the EC50 in assay [1] is 3.94 µM.
On the same count and under the same terms, in the case of `Cc1ccc(C(=O)NNC(=S)NC(=O)COc2ccccc2)cc1` it was 8.27 µM; in that of `COc1ccc(N2CCN(C(=O)c3ccc(Br)cc3)CC2)c([N+](=O)[O-])c1`, 11.4 µM; in that of `C/C(=N/NC(=O)c1ccc(C(C)(C)C)cc1)c1ccccn1`, 32.7 µM.
Still for that read-out and setting: the figure for `COc1ccc(N2C(=O)/C(=C/c3cccs3)C(=O)NC2=S)cc1` is 1.32 µM; for `CN1CCN(C(=O)c2cc(COc3c(F)cccc3F)on2)CC1c1ccccc1` (centres undefined) it is 6.66 µM; for `CCc1cc(C(=O)Nc2nc(-c3ccccn3)cs2)sc1C` it is 5.96 µM.
Still for that read-out and setting: the figure for `O=C(c1ccccc1)c1ccccc1N1C(=O)C=CC1=O` is 2 µM; for `COc1ccc(C2=CC(=O)N(Nc3ccccc3)C2=O)cc1` it is 9.78 µM.
With `CCOC(=O)CSC1=NC(=O)/C(=C/c2ccc(Br)cc2)S1`, the EC50 in assay [1] was 15 µM.
The same measure, in the same setting: in the case of `CC1=NNC(=O)/C1=C\c1cn(-c2ccccc2)nc1-c1ccccc1` it was 7.23 µM; in that of `O=C(Nc1nc(-c2ccccn2)cs1)c1cc2ccccc2o1`, 4.09 µM; in that of `N/C(Cc1ccc(Cl)cc1)=N\OC(=O)c1cccc2ccccc12`, 1.88 µM.
The same measure, in the same setting: the figure for `CCOC(=O)c1cc(-c2ccc(/C=C3/C(=O)NC(=O)C(C#N)=C3C)o2)ccc1Cl` is 1.36 µM; for `Cc1c(C(=O)Nc2nc(-c3ccccn3)cs2)oc2ccccc12` it is 4.01 µM; for `O=C1C=CC(=O)N1c1ccc(O)cc1` it is 4.09 µM.
The same measure, in the same setting: in the case of `ClC(Cl)(c1nnnn1-c1ccccc1)c1nnnn1-c1ccccc1` it was 3.8 µM.
Consider `COc1ccc(C(c2c(C)[nH]n(C(N)=S)c2=O)C(C#N)C#N)cc1` (centres undefined), for which the EC50 in assay [1] was 2.08 µM.
Same read-out and setting: in the case of `CC1=NOC(=O)/C1=C\c1ccc(-c2cc(Cl)ccc2Cl)o1` it was 26.8 µM; in that of `Clc1ccc(N=c2ssnc2Cl)cc1`, 19.3 µM; in that of `Cc1ccc(/C=C2/SC(=S)N(C3CCCCC3)C2=O)o1`, 13.3 µM.
The same measure, in the same setting: in the case of `O=C(NC(=S)NNC(=O)c1cnccn1)c1ccc(F)cc1` it was 7.94 µM; in that of `Oc1c(I)cc(I)c2cccnc12`, 0.7 µM; in that of `CCSc1nnc(NC(=O)c2ccccn2)s1`, 30.3 µM.
On the same count and under the same terms, in the case of `C/C(=N\NC(=O)c1cc2ccccc2cc1O)c1ccccn1` it was 3.98 µM; in that of `CCCOc1ccc(C(=O)NNC(=S)NC(=O)c2ccco2)cc1`, 13.3 µM.
Take `O=[N+]([O-])c1cc(S(=O)(=O)C(F)(F)F)ccc1Sc1nc2ccccc2s1`: the EC50 in assay [1] is 8.42 µM.
On the same count and under the same terms, the figure for `Cc1ccc(S(=O)(=O)c2ncccc2[N+](=O)[O-])cc1` is 14.6 µM.
Still for that read-out and setting: the figure for `Cc1cc(S(=O)(=O)ON2C(=O)c3ccccc3C2=O)ccc1F` is 4.21 µM; for `O=c1oc2cc(Oc3c([N+](=O)[O-])cc(C(F)(F)F)cc3[N+](=O)[O-])ccc2c2c1CCCC2` it is 3.04 µM; for `O=C(Nc1ccccc1)c1nnsc1S(=O)(=O)c1ccc(Cl)cc1` it is 0.564 µM.
The same measure, in the same setting: in the case of `CCc1ccc2c(c1)/C(=C/C(=O)c1cccs1)C(=O)N2` it was 4.07 µM.
As to `CC(C)(C)c1ccc(NC(=O)COC(=O)c2ccc([N+](=O)[O-])s2)cc1`, in assay [1], the EC50 is 3.72 µM.
Turning to `O=[N+]([O-])c1ccc(O)c2ncccc12`, the EC50 in assay [1] was 0.607 µM and 0.752 µM.
Same read-out and setting: in the case of `O=C1NC(=O)C(=Cc2ccc(-c3ccc(Cl)cc3)o2)C(=O)N1` it was 1.41 µM; in that of `COc1ccc(/C=C/C(=O)C2C(=O)C=C(C)OC2=O)cc1O` (centres undefined), 11.7 µM.
The same measure, in the same setting: in the case of `COc1cccc(/C=C/C(=O)c2c(O)cc(C)oc2=O)c1O` it was 4.42 µM; in that of `O=C1Oc2ccccc2C(=O)/C1=C/c1ccccc1O`, 3.75 µM.
For the compound `COc1ccc(C(=O)/C=C2/C(=O)Nc3ccccc32)cc1`, the EC50 in assay [1] was 3.38 µM.
On the same count and under the same terms, in the case of `Cc1ccccc1N=Nc1ccc(O)c2ncccc12` it was 7.96 µM; in that of `COc1cccc2sc(Nc3nc(-c4ccccn4)cs3)nc12`, 1.36 µM; in that of `Cc1cccc2c1NC(=O)/C2=C\C(=O)c1cccs1`, 5.59 µM.
Still for that read-out and setting: the figure for `CC(=O)SC(C[N+](=O)[O-])c1cn(C(C)=O)c2ccccc12` (centres undefined) is 10.7 µM; for `CCCCC(=O)NNC(=S)NC(=O)c1ccc(C)cc1` it is 11.3 µM; for `O=C1C=C(c2ccccc2)C(=O)N1Nc1ccccc1` it is 1.62 µM.
Same read-out and setting: the figure for `CC(=O)c1ccc(N2CCN(C(=O)c3ccc(Br)cc3)CC2)c(F)c1` is 9.91 µM.
As for `Cn1ncc(S(=O)(=O)Cc2ccccc2)c(Cl)c1=O`, the half-maximal effective concentration (EC50) in assay [1] is 4.01 µM.
Turning to `CC(C)(C)C(=O)NC(=S)NNC(=O)c1ccc(-c2ccccc2)cc1`, in assay [1], the EC50 was 7.51 µM.
Same read-out and setting: the figure for `CCCCS(=O)(=O)/C=C\C=C/S(=O)(=O)CCCC` is 2.54 µM.
The same measure, in the same setting: in the case of `COc1ccccc1N=Nc1ccc(O)c2ncccc12` it was 4.25 µM; in that of `CC(C)(C)n1nc(-c2ccc(F)cc2)c2c(N)ncnc21`, 3.51 µM; in that of `O=C(OCn1ncc(Br)c(Br)c1=O)c1ccc(F)cc1`, 19.1 µM.
Same read-out and setting: the figure for `Cc1ccc(/C=C2/C(=O)ON=C2c2ccccc2)o1` is 3.48 µM; for `O=C(Oc1ccnc2cc(Cl)ccc12)N1CCCCCC1` it is 12.1 µM.
Turning to `CNC(CC(=O)c1ccc([N+](=O)[O-])cc1)C(Cl)(Cl)Cl` (centres undefined), the EC50 in assay [1] was 1.34 µM.
Same read-out and setting: the figure for `Oc1c(I)cc(Cl)c2cccnc12` is 0.986 µM; for `O=[N+]([O-])c1cc(Cl)c2cccnc2c1O` it is 0.859 µM.
On the same count and under the same terms, in the case of `O=C1c2ccccc2C(=O)C2OC12` (centres undefined) it was 19.6 µM; in that of `CCOC(=O)c1ccc(N=Cc2nc(-c3ccccc3)oc2OC(C)=O)cc1`, 25.9 µM; in that of `O=C1NC(=S)NC(=O)C1=Cc1ccc2c(c1)CCN2CCCCl`, 4.06 µM.
Take `COc1ccc(C(=O)NNC(=S)NC(=O)/C=C/c2cccs2)cc1`: the EC50 in assay [1] was 9.05 µM.
On the same count and under the same terms, in the case of `O=C(COc1ccccc1)NNC(=S)NC(=O)c1ccc(Cl)cc1Cl` it was 17.8 µM; in that of `N/C(Cc1ccc(Cl)cc1Cl)=N\OC(=O)c1cccs1`, 4.48 µM.
Turning to `O=c1cc(CSc2ccc(Cl)cc2)nc(-c2ccccn2)[nH]1`, the EC50 in assay [1] was 6.28 µM.
The same measure, in the same setting: the figure for `Oc1ccc(Br)cc1/C=N/Nc1ccccn1` is 22.7 µM; for `O=[N+]([O-])c1cc(O)c2ncccc2c1` it is 9.88 µM; for `O=C(NC(=S)NNC(=O)c1cnccn1)c1ccc(Cl)cc1` it is 1.75 µM.
Consider `CCOc1ccc(NC2=C(Cl)C(=O)N(Cc3ccccc3)C2=O)cc1`, for which, in assay [2], the LAP4-GFP fluorescence (kMESF) is 6.11 kMESF (inactive).
For the compound `O=C(Nc1ccc(NC(=O)c2cc3ccccc3o2)cc1)c1ccco1`, the LAP4-GFP fluorescence (kMESF) in assay [2] was 3.31 kMESF (inactive).
Same read-out and setting: the figure for `CCCc1ccc(OCC(=O)NNC(=S)NC(=O)c2ccco2)cc1` is 11.2 kMESF (inactive).
As to `Cc1ccc(/C(N)=N/OC(=O)c2ccc(F)cc2)cc1`, the LAP4-GFP fluorescence (kMESF) in assay [2] was 5.21 kMESF (inactive).
The same measure, in the same setting: the figure for `O=C(Nc1nnc(-c2ccc3c(c2)CCCC3)o1)c1ccc(Cl)cc1Cl` is 5.77 kMESF (inactive).
